Data: patent US20260297081A1, “COMPOUNDS AND METHODS OF TREATING CANCERS” (Cullgen Inc., priority 2023, published 2026)

Biological target: CDK4 (Homo sapiens, UniProt P11802+Q16531)
Experiment: CDK4 percentage degradation in Calu-1 cells (Table 6)
Type: cell-based
Design: Cells that express cyclin D1-3 and CDK4/6 proteins were treated with heterobifunctional compounds; endogenous in cells; host or cells: Calu-1
Conditions: 16 hours; for inhibition at 0.04 µM: 40 nM; for inhibition at 0.2 µM: 200 nM
Procedure, shortened: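 Calu-1 cells exposed to heterobifunctional compounds at 40 nM or 200 nM for 16 h. Cyclin D1 and CDK4 levels measured by Western blot of RIPA lysates (BCA-normalised loading), bands quantified by densitometry and expressed as percentage degradation.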

Sequence of CDK4 (P11802 2-303 limits assumed): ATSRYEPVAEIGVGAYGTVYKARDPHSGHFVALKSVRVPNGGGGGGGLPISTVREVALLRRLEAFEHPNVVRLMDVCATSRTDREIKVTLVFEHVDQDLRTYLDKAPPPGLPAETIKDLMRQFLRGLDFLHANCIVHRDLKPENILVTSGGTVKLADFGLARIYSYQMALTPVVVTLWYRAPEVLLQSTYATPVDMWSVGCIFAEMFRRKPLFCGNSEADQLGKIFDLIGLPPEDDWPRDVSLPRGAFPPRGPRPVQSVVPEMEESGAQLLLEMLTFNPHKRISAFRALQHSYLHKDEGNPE
Sequence of CDK4 (P24385 whole entry partner): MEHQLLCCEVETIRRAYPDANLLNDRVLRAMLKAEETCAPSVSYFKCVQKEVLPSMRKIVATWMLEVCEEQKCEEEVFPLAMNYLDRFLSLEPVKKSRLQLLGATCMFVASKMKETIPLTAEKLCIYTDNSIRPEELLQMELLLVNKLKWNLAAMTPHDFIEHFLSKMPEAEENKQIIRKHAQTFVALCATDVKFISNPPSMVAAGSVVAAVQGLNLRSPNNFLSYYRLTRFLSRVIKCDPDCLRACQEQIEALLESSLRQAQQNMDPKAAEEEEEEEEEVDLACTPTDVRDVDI
Sequence of CDK4 (Q16531 2-1140 limits assumed): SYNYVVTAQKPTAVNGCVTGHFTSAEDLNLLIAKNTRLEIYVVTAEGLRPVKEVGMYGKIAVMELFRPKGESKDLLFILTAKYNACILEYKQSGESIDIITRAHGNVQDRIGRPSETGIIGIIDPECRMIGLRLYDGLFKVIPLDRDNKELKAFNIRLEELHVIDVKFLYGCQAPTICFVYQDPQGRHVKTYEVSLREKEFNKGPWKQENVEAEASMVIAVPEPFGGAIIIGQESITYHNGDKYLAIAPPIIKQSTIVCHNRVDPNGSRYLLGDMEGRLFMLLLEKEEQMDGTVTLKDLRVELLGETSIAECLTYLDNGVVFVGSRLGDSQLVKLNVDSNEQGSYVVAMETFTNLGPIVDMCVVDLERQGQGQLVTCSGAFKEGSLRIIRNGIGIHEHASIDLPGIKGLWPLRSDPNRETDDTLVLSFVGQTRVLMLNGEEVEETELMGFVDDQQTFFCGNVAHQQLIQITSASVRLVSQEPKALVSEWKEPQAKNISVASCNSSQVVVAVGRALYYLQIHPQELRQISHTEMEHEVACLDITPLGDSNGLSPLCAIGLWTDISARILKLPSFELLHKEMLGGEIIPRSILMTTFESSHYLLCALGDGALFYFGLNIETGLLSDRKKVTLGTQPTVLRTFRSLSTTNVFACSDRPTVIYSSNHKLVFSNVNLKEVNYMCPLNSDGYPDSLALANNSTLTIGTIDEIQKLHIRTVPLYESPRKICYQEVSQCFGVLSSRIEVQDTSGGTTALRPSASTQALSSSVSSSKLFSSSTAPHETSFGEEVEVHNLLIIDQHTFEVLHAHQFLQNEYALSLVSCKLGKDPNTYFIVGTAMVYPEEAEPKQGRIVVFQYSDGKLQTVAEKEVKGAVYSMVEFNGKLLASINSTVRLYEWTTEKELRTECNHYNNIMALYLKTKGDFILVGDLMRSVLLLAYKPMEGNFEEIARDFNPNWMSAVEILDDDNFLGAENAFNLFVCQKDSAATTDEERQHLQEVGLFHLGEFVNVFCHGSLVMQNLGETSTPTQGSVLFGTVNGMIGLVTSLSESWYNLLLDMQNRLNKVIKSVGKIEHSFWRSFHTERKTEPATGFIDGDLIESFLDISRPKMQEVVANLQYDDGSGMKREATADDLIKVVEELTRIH

Row | SMILES | inhibition at 0.04 µM [%] | inhibition at 0.2 µM [%]
1 | CNc1ccc(C(=O)Nc2cccc(C3CC3)n2)c(NC[C@H]2CC[C@H](NC(=O)CN3CCN(c4ccc(Nc5ncc6c(C)c(C(C)=O)c(=O)n(C7CCCC7)c6n5)nc4)CC3)CC2)n1 [CPD-154, 2-(((trans-4-(2-(4-(6-((6-acetyl-8-cyclopentyl-5-methyl-7-oxo-7,8-dihydropyrido[2,3-d]pyrimidin-2-yl)amino)pyridin-3-yl)piperazin-1-yl)acetamido)cyclohexyl)methyl)amino)-N-(6-cyclopropylpyridin-2-yl)-6-(methylamino)nicotinamide] | < 30 | < 30
2 | CNc1ccc(C(=O)Nc2ccc(N(C)C)nn2)c(NC2CC(CCCC(=O)N3CCN(c4ccc(Nc5ncc6c(C)c(C(C)=O)c(=O)n(C7CCCC7)c6n5)nc4)CC3)C2)n1 (centres unmarked) [CPD-156, 2-((3-(4-(4-(6-((6-acetyl-8-cyclopentyl-5-methyl-7-oxo-7,8-dihydropyrido[2,3-d]pyrimidin-2-yl)amino)pyridin-3-yl)piperazin-1-yl)-4-oxobutyl)cyclobutyl)amino)-N-(6-(dimethylamino)pyridazin-3-yl)-6-(methylamino)nicotinamide] | 50 to 80 | 50 to 80
3 | CNc1ccc(C(=O)Nc2ccon2)c(NC2CC3(CC(NC(=O)CN4CCN(c5ccc(Nc6ncc7c(C)c(C(C)=O)c(=O)n(C8CCCC8)c7n6)nc5)CC4)C3)C2)n1 (centres unmarked) [CPD-159, 2-((6-(2-(4-(6-((6-acetyl-8-cyclopentyl-5-methyl-7-oxo-7,8-dihydropyrido[2,3-d]pyrimidin-2-yl)amino)pyridin-3-yl)piperazin-1-yl)acetamido)spiro[3.3]heptan-2-yl)amino)-N-(isoxazol-3-yl)-6-(methylamino)nicotinamide] | < 30 | 50 to 80
4 | CNc1ccc(C(=O)Nc2cc(C)on2)c(NC2CC3(CC(NC(=O)CN4CCN(c5ccc(Nc6ncc7c(C)c(C(C)=O)c(=O)n(C8CCCC8)c7n6)nc5)CC4)C3)C2)n1 (centres unmarked) [CPD-160, 2-((6-(2-(4-(6-((6-acetyl-8-cyclopentyl-5-methyl-7-oxo-7,8-dihydropyrido[2,3-d]pyrimidin-2-yl)amino)pyridin-3-yl)piperazin-1-yl)acetamido)spiro[3.3]heptan-2-yl)amino)-6-(methylamino)-N-(5-methylisoxazol-3-yl)nicotinamide] | 50 to 80 | > 80
5 | CNc1ccc(C(=O)Nc2cccc(OC)n2)c(NC2CC3(CC(NC(=O)CN4CCN(c5ccc(Nc6ncc7c(C)c(C(C)=O)c(=O)n(C8CCCC8)c7n6)nc5)CC4)C3)C2)n1 (centres unmarked) [CPD-161, 2-((6-(2-(4-(6-((6-acetyl-8-cyclopentyl-5-methyl-7-oxo-7,8-dihydropyrido[2,3-d]pyrimidin-2-yl)amino)pyridin-3-yl)piperazin-1-yl)acetamido)spiro[3.3]heptan-2-yl)amino)-N-(6-methoxypyridin-2-yl)-6-(methylamino)nicotinamide] | 50 to 80 | > 80
6 | CNc1ccc(C(=O)Nc2cccc(C3CC3)n2)c(NC2CC(CNC(=O)CN3CCN(c4ccc(Nc5ncc6c(C)c(C(C)=O)c(=O)n(C7CCCC7)c6n5)nc4)CC3)C2)n1 (centres unmarked) [CPD-162, 2-((3-((2-(4-(6-((6-acetyl-8-cyclopentyl-5-methyl-7-oxo-7,8-dihydropyrido[2,3-d]pyrimidin-2-yl)amino)pyridin-3-yl)piperazin-1-yl)acetamido)methyl)cyclobutyl)amino)-N-(6-cyclopropylpyridin-2-yl)-6-(methylamino)nicotinamide] | 50 to 80 | 50 to 80

More lines, now with the values ahead:

Row | inhibition at 0.04 µM [%] | inhibition at 0.2 µM [%] | SMILES
7 | 50 to 80 | 50 to 80 | [2H]C([2H])([2H])Nc1ccc(C(=O)Nc2cccc(C3CC3)n2)c(NC2CC3(CC(NC(=O)CN4CCN(c5ccc(Nc6ncc7c(C)c(C(C)=O)c(=O)n(C8CCCC8)c7n6)nc5)CC4)C3)C2)n1 (centres unmarked) [CPD-163, 2-((6-(2-(4-(6-((6-acetyl-8-cyclopentyl-5-methyl-7-oxo-7,8-dihydropyrido[2,3-d]pyrimidin-2-yl)amino)pyridin-3-yl)piperazin-1-yl)acetamido)spiro[3.3]heptan-2-yl)amino)-N-(6-cyclopropylpyridin-2-yl)-6-((methyl-d3)amino)nicotinamide]
8 | 50 to 80 | > 80 | CNc1ccc(C(=O)Nc2ccc(N(C)C)nn2)c(NC2CC(COCC(=O)N3CCN(c4ccc(Nc5ncc6c(C)c(C(C)=O)c(=O)n(C7CCCC7)c6n5)nc4)CC3)C2)n1 (centres unmarked) [CPD-164, 2-((3-((2-(4-(6-((6-acetyl-8-cyclopentyl-5-methyl-7-oxo-7,8-dihydropyrido[2,3-d]pyrimidin-2-yl)amino)pyridin-3-yl)piperazin-1-yl)-2-oxoethoxy)methyl)cyclobutyl)amino)-N-(6-(dimethylamino)pyridazin-3-yl)-6-(methylamino)nicotinamide]
9 | 50 to 80 | 50 to 80 | CNc1ccc(C(=O)Nc2ccc(N(C)C)nn2)c(NC2CC(CNC(=O)N3CCN(c4ccc(Nc5ncc6c(C)c(C(C)=O)c(=O)n(C7CCCC7)c6n5)nc4)CC3)C2)n1 (centres unmarked) [CPD-166, 4-(6-((6-acetyl-8-cyclopentyl-5-methyl-7-oxo-7,8-dihydropyrido[2,3-d]pyrimidin-2-yl)amino)pyridin-3-yl)-N-((3-((3-((6-(dimethylamino)pyridazin-3-yl)carbamoyl)-6-(methylamino)pyridin-2-yl)amino)cyclobutyl)methyl)piperazine-1-carboxamide]
10 | 50 to 80 | > 80 | CNc1ccc(C(=O)Nc2ccc(N(C)C)nn2)c(NC2CC(OCC(=O)N3CCN(c4ccc(Nc5ncc6c(C)c(C(C)=O)c(=O)n(C7CCCC7)c6n5)nc4)CC3)C2)n1 (centres unmarked) [CPD-168, 2-((3-(2-(4-(6-((6-acetyl-8-cyclopentyl-5-methyl-7-oxo-7,8-dihydropyrido[2,3-d]pyrimidin-2-yl)amino)pyridin-3-yl)piperazin-1-yl)-2-oxoethoxy)cyclobutyl)amino)-N-(6-(dimethylamino)pyridazin-3-yl)-6-(methylamino)nicotinamide]
11 | < 30 | 30 to 50 | CNc1ccc(C(=O)Nc2ccc(N(C)C)nn2)c(NC[C@H]2CC[C@H](CNC(=O)N3CCN(c4ccc(Nc5ncc6c(C)c(C(C)=O)c(=O)n(C7CCCC7)c6n5)nc4)CC3)CC2)n1 [CPD-169, 4-(6-((6-acetyl-8-cyclopentyl-5-methyl-7-oxo-7,8-dihydropyrido[2,3-d]pyrimidin-2-yl)amino)pyridin-3-yl)-N-((trans-4-(((3-((6-(dimethylamino)pyridazin-3-yl)carbamoyl)-6-(methylamino)pyridin-2-yl)amino)methyl)cyclohexyl)menthyl)piperazine-1-carboxamide]
12 | 50 to 80 | 50 to 80 | CNc1ccc(C(=O)Nc2ccc(N(C)C)nn2)c(NC2CC(CNC(=O)C3(CN4CCN(c5ccc(Nc6ncc7c(C)c(C(C)=O)c(=O)n(C8CCCC8)c7n6)nc5)CC4)CC3)C2)n1 (centres unmarked) [CPD-172, 2-((3-((1-((4-(6-((6-acetyl-8-cyclopentyl-5-methyl-7-oxo-7,8-dihydropyrido[2,3-d]pyrimidin-2-yl)amino)pyridin-3-yl)piperazin-1-yl)methyl)cyclopropane-1-carboxamido)methyl)cyclobutyl)amino)-N-(6-(dimethylamino)pyridazin-3-yl)-6-(methylamino)nicotinamide]
13 | < 30 | 50 to 80 | CNc1ccc(C(=O)Nc2cccc(C3CC3)n2)c(NC2CC3(C2)CN(C(=O)C(C)(C)N2CCN(c4ccc(Nc5ncc6c(C)c(C(C)=O)c(=O)n(C7CCCC7)c6n5)nc4)CC2)C3)n1 [CPD-175, 2-((2-(2-(4-(6-((6-acetyl-8-cyclopentyl-5-methyl-7-oxo-7,8-dihydropyrido[2,3-d]pyrimidin-2-yl)amino)pyridin-3-yl)piperazin-1-yl)-2-methylpropanoyl)-2-azaspiro[3.3]heptan-6-yl)amino)-N-(6-cyclopropylpyridin-2-yl)-6-(methylamino)nicotinamide]
14 | < 30 | 50 to 80 | CNc1ccc(C(=O)Nc2cccc(C)n2)c(NC2CC3(C2)CN(C(=O)C(C)(C)N2CCN(c4ccc(Nc5ncc6c(C)c(C(C)=O)c(=O)n(C7CCCC7)c6n5)nc4)CC2)C3)n1 [CPD-176, 2-((2-(2-(4-(6-((6-acetyl-8-cyclopentyl-5-methyl-7-oxo-7,8-dihydropyrido[2,3-di]pyrimidin-2-yl)amino)pyridin-3-yl)piperazin-1-yl)-2-methylpropanoyl)-2-azaspiro[3.3]heptan-6-yl)amino)-6-(methylamino)-N-(6-methylpyridin-2-yl)nicotinamide]
15 | < 30 | 50 to 80 | CNc1ccc(C(=O)Nc2ccc(N(C)C)c(C3CC3)n2)c(NC2CC3(CC(NC(=O)CN4CCN(c5ccc(Nc6ncc7c(C)c(C(C)=O)c(=O)n(C8CCCC8)c7n6)nc5)CC4)C3)C2)n1 (centres unmarked) [CPD-177, 2-((6-(2-(4-(6-((6-acetyl-8-cyclopentyl-5-methyl-7-oxo-7,8-dihydropyrido[2,3-d]pyrimidin-2-yl)amino)pyridin-3-yl)piperazin-1-yl)acetamido)spiro[3.3]heptan-2-yl)amino)-N-(6-cyclopropyl-5-(dimethylamino)pyridin-2-yl)-6-(methylamino)nicotinamide]
16 | 50 to 80 | 50 to 80 | CNc1ccc(C(=O)Nc2cn(C)c(C)n2)c(NC2CC3(CC(NC(=O)CN4CCN(c5ccc(Nc6ncc7c(C)c(C(C)=O)c(=O)n(C8CCCC8)c7n6)nc5)CC4)C3)C2)n1 (centres unmarked) [CPD-179, 2-((6-(2-(4-(6-((6-acetyl-8-cyclopentyl-5-methyl-7-oxo-7,8-dihydropyrido[2,3-d]pyrimidin-2-yl)amino)pyridin-3-yl)piperazin-1-yl)acetamido)spiro[3.3]heptan-2-yl)amino)-N-(1,2-dimethyl-1H-imidazol-4-yl)-6-(methylamino)nicotinamide]
